Laboratory results from US6054435A, “6-O-substituted macrolides having antibacterial activity” (priority 1999, dated 2000).
Values after ≈ are worked out from the molar mass of the structure shown.

Assays:
Test in all cases: in vitro antibacterial activity (MIC), agar dilution
Assay type in all cases: cell-based
[1] = system: Streptococcus agalactiae CMX 508; conditions: organism code KK; BHI agar, 35-37° C., 20 to 24 hours; unit assumed
Protocol: (§1) Representative compounds of the present invention were assayed in vitro for antibacterial activity as follows: Twelve petri dishes containing successive aqueous dilutions of the test compound mixed with 10 mL of sterilized Brain Heart Infusion (BHI) agar (Difco 0418-01-5) were prepared. Each plate was inoculated with 1:100 (or 1:10 for slow-growing strains, such as Micrococcus and Streptococcus) dilutions of up to 32 different microorganisms, using a Steers replicator block. […] In addition, a control plate, using BHI agar containing no test compound, was prepared and incubated at the beginning and end of each test.
(§2) An additional plate containing a compound having known susceptibility patterns for the organisms being tested and belonging to the same antibiotic class as the test compound was also prepared and incubated as a further control, as well as to provide test-to-test comparability.
(§3) After incubation, each plate was visually inspected. The minimum inhibitory concentration (MIC) was defined as the lowest concentration of drug yielding no growth, a slight haze, or sparsely isolated colonies on the inoculum spot as compared to the growth control.

[2] = system: Staphylococcus aureus A5177; conditions: organism code BB; BHI agar, 35-37° C., 20 to 24 hours; unit assumed
Protocol: as §1, §2, §3

[3] = system: Streptococcus Pneumonia 5649; conditions: organism code ZZA; BHI agar, 35-37° C., 20 to 24 hours; unit assumed
Protocol: as §1, §2, §3

[4] = system: Micrococcus luteus ATCC 9341; conditions: organism code OO; BHI agar, 35-37° C., 20 to 24 hours; unit assumed
Protocol: as §1, §2, §3

[5] = system: Staphylococcus aureus A-5278; conditions: organism code CC; BHI agar, 35-37° C., 20 to 24 hours; unit assumed
Protocol: as §1, §2, §3

[6] = system: Streptococcus pyogenes PIU 2548; conditions: organism code NN; BHI agar, 35-37° C., 20 to 24 hours; unit assumed
Protocol: as §1, §2, §3

Escherichia coli SS = conditions: organism code RR; BHI agar, 35-37° C., 20 to 24 hours; unit assumed
Protocol: as §1, §2, §3

Escherichia coli JUHL = conditions: organism code QQ; BHI agar, 35-37° C., 20 to 24 hours; unit assumed
Protocol: as §1, §2, §3

[7] = system: Staphylococcus aureus CMX 642A; conditions: organism code DD; BHI agar, 35-37° C., 20 to 24 hours; unit assumed
Protocol: as §1, §2, §3

[8] = system: Streptococcus Pneumonia 5979; conditions: organism code ZZ; BHI agar, 35-37° C., 20 to 24 hours; unit assumed
Protocol: as §1, §2, §3

[9] = system: Haemophilis Influenzae DILL AMP R; conditions: organism code WW; BHI agar, 35-37° C., 20 to 24 hours; unit assumed
Protocol: as §1, §2, §3

[10] = system: Staphylococcus aureus CMX 553; conditions: organism code FF; BHI agar, 35-37° C., 20 to 24 hours; unit assumed
Protocol: as §1, §2, §3

[11] = system: Staphylococcus aureus 1775; conditions: organism code GG; BHI agar, 35-37° C., 20 to 24 hours; unit assumed
Protocol: as §1, §2, §3

[12] = system: Mycobacterium smegmatis ATCC 114; conditions: organism code UU; BHI agar, 35-37° C., 20 to 24 hours; unit assumed
Protocol: as §1, §2, §3

[13] = system: Streptococcus bovis A-5169; conditions: organism code JJ; BHI agar, 35-37° C., 20 to 24 hours; unit assumed
Protocol: as §1, §2, §3

Candida albicans CCH 442 = conditions: organism code TT; BHI agar, 35-37° C., 20 to 24 hours; unit assumed
Protocol: as §1, §2, §3

[14] = system: Staphylococcus epidermidis 3519; conditions: organism code HH; BHI agar, 35-37° C., 20 to 24 hours; unit assumed
Protocol: as §1, §2, §3

[15] = system: Nocardia Asteroides ATCC9970; conditions: organism code VV; BHI agar, 35-37° C., 20 to 24 hours; unit assumed
Protocol: as §1, §2, §3

[16] = system: Streptococcus Pneumonia ATCC6303; conditions: organism code XX; BHI agar, 35-37° C., 20 to 24 hours; unit assumed
Protocol: as §1, §2, §3

[17] = system: Staphylococcus aureus ATCC 6538P; conditions: organism code AA; BHI agar, 35-37° C., 20 to 24 hours; unit assumed
Protocol: as §1, §2, §3

Escherichia coli DC-2 = conditions: organism code SS; BHI agar, 35-37° C., 20 to 24 hours; unit assumed
Protocol: as §1, §2, §3

[18] = system: Staphylococcus aureus NCTC10649M; conditions: organism code EE; BHI agar, 35-37° C., 20 to 24 hours; unit assumed
Protocol: as §1, §2, §3

[19] = system: Micrococcus luteus ATCC 4698; conditions: organism code PP; BHI agar, 35-37° C., 20 to 24 hours; unit assumed
Protocol: as §1, §2, §3

[20] = system: Streptococcus pyogenes EES61; conditions: organism code LL; BHI agar, 35-37° C., 20 to 24 hours; unit assumed
Protocol: as §1, §2, §3

[21] = system: Streptococcus Pneumonia GYR 1171; conditions: organism code YY; BHI agar, 35-37° C., 20 to 24 hours; unit assumed
Protocol: as §1, §2, §3

[22] = system: Streptococcus pyogenes 930; conditions: organism code MM; BHI agar, 35-37° C., 20 to 24 hours; unit assumed
Protocol: as §1, §2, §3

[23] = system: Enterococcus faecium ATCC 8043; conditions: organism code II; BHI agar, 35-37° C., 20 to 24 hours; unit assumed
Protocol: as §1, §2, §3

Compound	MIC [1] [mg/L]	MIC [2] [mg/L]	MIC [3] [mg/L]	MIC [4] [mg/L]	MIC [5] [mg/L]	MIC [6] [mg/L]	MIC (Escherichia coli SS) [mg/L]	MIC (Escherichia coli JUHL) [mg/L]	MIC [7] [mg/L]	MIC [8] [mg/L]	MIC [9] [mg/L]	MIC [10] [mg/L]	MIC [11] [mg/L]	MIC [12] [mg/L]	MIC [13] [mg/L]	MIC (Candida albicans CCH 442) [mg/L]	MIC [14] [mg/L]	MIC [15] [mg/L]	MIC [16] [mg/L]	MIC [17] [mg/L]	further results
CC[C@H]1OC(=O)[C@H](C)C(=O)[C@H](C)[C@@H](O[C@@H]2O[C@H](C)C[C@H](N(C)C)[C@H]2O)[C@](C)(OCC#Cc2ccc(-c3cccc(OC)c3)s2)C[C@@H](C)C(=O)[C@H](C)[C@H]2NC(=O)O[C@@]21C [Example 14]	0.01 (≈ 0.0121 µM)	0.1 (≈ 0.121 µM)	0.25 (≈ 0.303 µM)	0.01 (≈ 0.0121 µM)	> 100	0.1 (≈ 0.121 µM)	0.39 (≈ 0.473 µM)	> 100	0.1 (≈ 0.121 µM)	1 (≈ 1.21 µM)	2 (≈ 2.42 µM)	0.1 (≈ 0.121 µM)	50 (≈ 60.6 µM)	0.2 (≈ 0.242 µM)	≤ 0.005	> 100	0.1 (≈ 0.121 µM)	0.1 (≈ 0.121 µM)	0.03 (≈ 0.0364 µM)	0.1 (≈ 0.121 µM)	MIC (Escherichia coli DC-2): > 100 mg/L; MIC [18]: 0.1 mg/L (≈ 0.121 µM); MIC [19]: 0.02 mg/L (≈ 0.0242 µM); MIC [20]: 0.01 mg/L (≈ 0.0121 µM); MIC [21]: 0.03 mg/L (≈ 0.0364 µM); MIC [22]: 1.56 mg/L (≈ 1.89 µM)
CC[C@H]1OC(=O)[C@H](C)C(=O)[C@H](C)[C@@H](O[C@@H]2O[C@H](C)C[C@H](N(C)C)[C@H]2O)[C@](C)(OCC#Cc2ccc(-c3cccc(F)c3)s2)C[C@@H](C)C(=O)[C@H](C)[C@H]2NC(=O)O[C@@]21C [Example 15]	0.05 (≈ 0.0615 µM)	0.1 (≈ 0.123 µM)	0.25 (≈ 0.308 µM)	0.05 (≈ 0.0615 µM)	50 (≈ 61.5 µM)	0.2 (≈ 0.246 µM)	0.39 (≈ 0.48 µM)	> 100	0.2 (≈ 0.246 µM)	0.25 (≈ 0.308 µM)	2 (≈ 2.46 µM)	0.1 (≈ 0.123 µM)	50 (≈ 61.5 µM)	0.39 (≈ 0.48 µM)	0.05 (≈ 0.0615 µM)	> 100	0.2 (≈ 0.246 µM)	0.2 (≈ 0.246 µM)	0.015 (≈ 0.0185 µM)	0.1 (≈ 0.123 µM)	MIC (Escherichia coli DC-2): > 100 mg/L; MIC [18]: 0.2 mg/L (≈ 0.246 µM); MIC [19]: 0.1 mg/L (≈ 0.123 µM); MIC [20]: 0.05 mg/L (≈ 0.0615 µM); MIC [21]: 0.015 mg/L (≈ 0.0185 µM); MIC [22]: 3.1 mg/L (≈ 3.81 µM)
CC[C@H]1OC(=O)[C@H](C)C(=O)[C@H](C)[C@@H](O[C@@H]2O[C@H](C)C[C@H](N(C)C)[C@H]2O)[C@](C)(OCC#Cc2ccc(-c3cccc(Cl)c3)s2)C[C@@H](C)C(=O)[C@H](C)[C@H]2NC(=O)O[C@@]21C [Example 16]	0.02 (≈ 0.0241 µM)	0.2 (≈ 0.241 µM)	0.25 (≈ 0.301 µM)	0.02 (≈ 0.0241 µM)	25 (≈ 30.1 µM)	0.2 (≈ 0.241 µM)	0.39 (≈ 0.47 µM)	> 100	0.2 (≈ 0.241 µM)	2 (≈ 2.41 µM)	4 (≈ 4.82 µM)	0.2 (≈ 0.241 µM)	12.5 (≈ 15.1 µM)	0.2 (≈ 0.241 µM)	0.02 (≈ 0.0241 µM)	> 100	0.2 (≈ 0.241 µM)	0.2 (≈ 0.241 µM)	0.03 (≈ 0.0362 µM)	0.1 (≈ 0.121 µM)	MIC [23]: 0.1 mg/L (≈ 0.121 µM); MIC (Escherichia coli DC-2): > 100 mg/L; MIC [18]: 0.2 mg/L (≈ 0.241 µM); MIC [19]: 0.2 mg/L (≈ 0.241 µM); MIC [20]: 0.1 mg/L (≈ 0.121 µM); MIC [21]: 0.03 mg/L (≈ 0.0362 µM)
